EP1279727A1, “TRANSFORMATION AND MODIFICATION OF NATURAL DRUG BY INTESTINAL PROBIOTIC FERMENTATIVE CULTURE” (Wu, Bingxin, priority 2000, dated 2002)
Read-outs that look alike come from different tables or passages of the source.

Assays:
S180 sacoma = conditions: S180 mouse, positive control CTX subcutaneously
Description: (§1) Using species Kunming mouse subcutaneously grafted S180 sacoma or H22 hepatocarcinoma as cancer-harboring model animal, the inhibition activity on growth of cancer is observed with respect to extract of anti-cancer natural medicines which converted or unconverted by the above intestinal probiotics in either large dose or small dose.
(§2) For this purpose, 120 mice weighed from about 18-25g are grafted subcutaneously at right axilla with 1 x 10^7 cells/ml of S180 sacoma or H22 hepatocarcinoma (0.2ml/mouse) in order to obtain solid tumor model animal. The resultant model animal is grouped randomly into 12 groups. Each animal in treatment group is orally administrated with unfermented (in 1:1 dilution) or fermented (in 1:4 dilution) extract of natural medicines daily.
(§3) The administration of extract of natural medicine starts at the forth day from the date grafting cancer cells, i.e., the time when solid tumor can be touched by hand. After continuously administration over 10 days, the weight of animal and solid tumor are measured, respectively, and then inhibition rate of cancer can be calculated accordingly. The treatment experiments on the two types of cancer are carried out in triplicate.

H22 hepatocarcinoma [1] = conditions: H22 mouse, positive control CTX subcutaneously
Description: as §1, §2, §3

H22 hepatocarcinoma [2] = format: in vivo; conditions: H22 mouse, single therapy (subgroup 2 preparation alone; subgroup 3 5-Fu 15 mg/kg alone), 7 days
Description: 1. […] The resultant model mouse is grouped randomly into eight groups.
Each mouse in first four groups is treated for observing effect of the present natural medicine preparation on the efficiency of anti-cancer chemical agent, fliorouracil (5-Fu, 15 mg/kg), mice in the rest four groups is for the effect of the present compositions on the efficiency of radiotherapy for cancer (^60Co irradiation on whole body, 4.5 Gray /day/animal).
The combination therapy to both animal groups (4 subgroups in each group) starts from the next day of grafting tumor cells and continues for 7 days.
The synergetic effect of the present composition on chemical therapy or radiotherapy for cancer is calculated by the inhibition rate according to the following Burgi's correction equation: Q= E (A+B)/EA+EB-EAxEB [formula] wherein, E (A+B) is the cancer inhibition rate of the combined therapy, EA and EB are the cancer inhibition rate of the present composition administration, or the chemical therapy (or radiotherapy) alone.
Result: (1) If Q calculated is lower than 0.85, it is considered as an antergenic effect between combined therapy; (2) if Q is between 0.85 and 1.15, it is considered as an addictive effect; and (3) if Q is above 1.15, then it is deemed as synergetic effect between combined therapy. The particular results are listed in table 3 and table 4, respectively.

O=P1(N(CCCl)CCCl)NCCCO1 (stereo not shown) [positive control, cyclophosphamide]
animal weight before ad. (S180 sacoma): 20.1
animal weight after ad. (S180 sacoma; after 10 days): 21.2
inhibition rate (S180 sacoma; after 10 days): 61.0%
solid tumor weight (X±SD) (S180 sacoma; after 10 days): 0.55±0.19
animal weight before ad. (H22 hepatocarcinoma [1]): 21.2
animal weight after ad. (H22 hepatocarcinoma [1]; after 10 days): 27.9
inhibition rate (H22 hepatocarcinoma [1]; after 10 days): 62.4%
solid tumor weight (X±SD) (H22 hepatocarcinoma [1]; after 10 days): 0.72±0.36

O=c1[nH]cc(F)c(=O)[nH]1 [5-Fu, fliorouracil]
inhibition rate (H22 hepatocarcinoma [2]): 56.7%
tumor weight (X±SD) (H22 hepatocarcinoma [2]): 1.06±0.31
